The values that follow are results of earlier work, collected in patent US7374770B2, “Topical composition for follicular delivery of an ornithine decarboxylase inhibitor” (SkinMedica, Inc., priority 2001, dated 2008).

For this series the following is noted: undesirable secondary pharmacological effect, known.

Consider `C#CC(N)CCCN` (stereo not shown) [5-hexyne-1,4-diamine], for which the “brain 4-aminobutyric acid levels” value was “increases”.
